≈ marks a conversion by molar mass, not a printed value. Calls of active or inactive are those of the source. The rule behind the calls is not given here.
Assays:
[1] = system: Staphylococcus epidermidis; assay: Antibacterial activity against Staphylococcus epidermidis ATCC 12228 assessed as bacterial growth inhibition incubated for 24 hrs by CLSI based broth microdilution method; format: functional
[2] = system: Klebsiella pneumoniae; assay: Antibacterial activity against multidrug-resistant Klebsiella pneumoniae 893 clinical isolate assessed as bacterial growth inhibition incubated for 24 hrs by CLSI based broth microdilution method; format: functional
[3] = system: Escherichia coli; assay: Bactericidal activity against Escherichia coli ATCC 25922 assessed as reduction in colony count at MIC incubated for 24 hrs by time kill assay relative to control; format: functional
[4] = system: Escherichia coli; assay: Bactericidal activity against Escherichia coli ATCC 25922 at 4 to 8 times MIC incubated for 8 to 12 hrs by time kill assay relative to control; format: functional; conditions: time 8-12 hrs
[5] = system: Escherichia coli; assay: Bactericidal activity against Escherichia coli ATCC 25922 incubated for 24 hrs by time kill assay; format: functional, organism-based
[6] = system: Mesomycoplasma hyorhinis; assay: Anti-mycoplasma activity against Mycoplasma hyorhinis BTS-7-NCTC10130 assessed as bacterial growth inhibition incubated for 7 days; format: functional; conditions: BTS-7-NCTC10130, 168 h, time 7 day
[7] = system: Mycoplasmopsis synoviae; assay: Anti-mycoplasma activity against Mycoplasmopsis synoviae MS-MVU1852-NCTC10124 assessed as bacterial growth inhibition incubated for 7 days; format: functional; conditions: MS-MVU1852-NCTC10124, 168 h, time 7 day
[8] = system: Staphylococcus aureus; assay: Induction of cell damage in methicillin-resistant Staphylococcus aureus ATCC 33591 assessed as decrease in intracellular ATP concentration at MIC incubated for 30 mins by fluorescence based analysis relative to control; format: functional; parameters: scale not given: the % may be the effect or the level left; conditions: 0.5 h
[9] = system: Escherichia coli; assay: Induction of cell damage in Escherichia coli ATCC 25922 assessed as fold increase in extracellular ATP concentration at MIC incubated for 30 mins by fluorescence based analysis relative to control; format: functional; conditions: 0.5 h
[10] = system: Escherichia coli; assay: Disruption of cell membrane integrity in Escherichia coli ATCC 25922 assessed as increase in red fluorescence at 1 to 4 times MIC incubated for 2 hrs by MycoLight green JJ98/PI staining based analysis; format: functional, organism-based
[11] = system: Staphylococcus aureus; assay: Antibacterial activity against methicillin-resistant Staphylococcus aureus ATCC 33591 infected in neutropenic Kunming mouse model assessed as bacterial load reduction in lung at 10 to 20 mg/kg, ip measured after 2 days; format: functional, organism-based; conditions: dose 10-20 mg/kg, time 2.0 day
[12] = system: Staphylococcus aureus; assay: Antibacterial activity against methicillin-resistant Staphylococcus aureus ATCC 33591 infected in neutropenic Kunming mouse model assessed as bacterial load reduction in liver at 10 to 20 mg/kg, ip measured after 2 days; format: functional, organism-based; conditions: dose 10-20 mg/kg, time 2.0 day
[13] = system: Staphylococcus aureus; assay: Antibacterial activity against methicillin-resistant Staphylococcus aureus ATCC 33591 infected in neutropenic Kunming mouse model assessed as reduction in infection-induced inflammatory cell inflammation in liver at 10 mg/kg, ip measured after 7 days; format: functional, organism-based; conditions: time 7.0 day
[14] = system: Staphylococcus aureus; assay: Antibacterial activity against methicillin-resistant Staphylococcus aureus ATCC 33591 infected in neutropenic Kunming mouse model assessed as reduction in infection-induced inflammatory cell infiltration in kidney at 20 mg/kg, ip measured after 7 days; format: functional, organism-based; conditions: time 7.0 day
[15] = Cmax in fasted Sprague-Dawley rat at 1 mg/kg, iv by LC-MS/MS analysis; format: ADME, organism-based; conditions: in vivo
[16] = Toxicity in fasted Sprague-Dawley rat assessed as mortality rate at 331 mg/kg, IG measured for 14 days; format: organism-based; conditions: in vivo, po, time 14 day
[17] = Toxicity in fasted male Sprague-Dawley rat assessed as body weight at 100 mg/kg, IG measured on same day (reference value: 212.7 +/- 13.2 g); format: organism-based; conditions: in vivo, po
[18] = Toxicity in fasted male Sprague-Dawley rat assessed as body weight at 148 mg/kg, IG measured on same day (reference value: 212.7 +/- 13.2 g); format: organism-based; conditions: in vivo, po
[19] = Toxicity in fasted female Sprague-Dawley rat assessed as body weight at 148 mg/kg, IG measured after 7 days (reference value: 188.2 +/- 9.2 g); format: organism-based; conditions: in vivo, po, 168 h, time 7 day
[20] = Toxicity in fasted male Sprague-Dawley rat assessed as body weight at 148 mg/kg, IG measured after 14 days (reference value: 311.2 +/- 13.6 g); format: organism-based; conditions: in vivo, po, 336 h, time 14 day
[21] = Toxicity in fasted female Sprague-Dawley rat assessed as body weight at 224 mg/kg, IG measured after 14 days (reference value: 214.3 +/- 9.8 g); format: organism-based; conditions: in vivo, po, 336 h, time 14 day
[22] = Toxicity in fasted male Sprague-Dawley rat assessed as animal growth rate at 148 mg/kg, IG measured for 14 days (reference value: 46.53 +/- 3.19 g); format: organism-based; conditions: in vivo, po, 336 h, time 14 day
[23] = Toxicity in fasted male Sprague-Dawley rat assessed as animal growth rate at 331 mg/kg, IG measured for 14 days (reference value: 46.53 +/- 3.19 g); format: organism-based; conditions: in vivo, po, 336 h, time 14 day
[24] = Toxicity in fasted female Sprague-Dawley rat assessed as relative liver weight ratio at 100 mg/kg, IG measured for 14 days (reference value: 3.199 +/- 0.062); format: organism-based; conditions: in vivo, po, 336 h, time 14 day
[25] = Toxicity in fasted female Sprague-Dawley rat assessed as relative liver weight ratio at 148 mg/kg, IG measured for 14 days (reference value: 3.199 +/- 0.062); format: organism-based; conditions: in vivo, po, 336 h, time 14 day
[26] = Toxicity in fasted male Sprague-Dawley rat assessed as relative kidney weight ratio at 100 mg/kg, IG measured for 14 days (reference value: 0.820 +/- 0.072); format: organism-based; conditions: in vivo, po, 336 h, time 14 day
[27] = Toxicity in fasted male Sprague-Dawley rat assessed as relative kidney weight ratio at 224 mg/kg, IG measured for 14 days (reference value: 0.820 +/- 0.072); format: organism-based; conditions: in vivo, po, 336 h, time 14 day
[28] = Toxicity in fasted male Sprague-Dawley rat assessed as relative heart weight ratio at 331 mg/kg, IG measured for 14 days (reference value: 0.396 +/- 0.043); format: organism-based; conditions: in vivo, po, 336 h, time 14 day
[29] = Toxicity in fasted male Sprague-Dawley rat assessed as relative lung weight ratio at 100 mg/kg, IG measured for 14 days (reference value: 0.437 +/- 0.064); format: organism-based; conditions: in vivo, po, 336 h, time 14 day
[30] = Toxicity in fasted male Sprague-Dawley rat assessed as relative lung weight ratio at 224 mg/kg, IG measured for 14 days (reference value: 0.437 +/- 0.064); format: organism-based; conditions: in vivo, po, 336 h, time 14 day
[31] = Toxicity in fasted female Sprague-Dawley rat assessed as relative lung weight ratio at 500 mg/kg, IG measured for 14 days (reference value: 0.534 +/- 0025); format: organism-based; conditions: in vivo, po, 336 h, time 14 day
[32] = Toxicity in fasted female Sprague-Dawley rat assessed as relative spleen weight ratio at 100 mg/kg, IG measured for 14 days (reference value: 0.223 +/- 0.019); format: organism-based; conditions: in vivo, po, 336 h, time 14 day
[33] = Toxicity in fasted male Sprague-Dawley rat assessed as relative spleen weight ratio at 331 mg/kg, IG measured for 14 days (reference value: 0.246 +/- 0.037); format: organism-based; conditions: in vivo, po, 336 h, time 14 day
[34] = Toxicity in fasted male Sprague-Dawley rat assessed as relative testis weight ratio at 100 mg/kg, IG measured for 14 days (reference value: 0.993 +/- 0.052); format: organism-based; conditions: in vivo, po, 336 h, time 14 day
[35] = system: Staphylococcus aureus; assay: Induction of extracellular electrical conductivity in methicillin-resistant Staphylococcus aureus ATCC 33591 at MIC incubated for 8 hrs relative to control

SMILES: C=C[C@]1(C)C[C@@H](OC(=O)COC(=O)/C=C/c2ccc(N(C)C)cc2)[C@]2(C)[C@H](C)CC[C@]3(CCC(=O)[C@H]32)[C@@H](C)[C@@H]1O
- MIC [1]: 1 µg/mL (≈ 1.81 µM)
- MIC [2]: 64 µg/mL (≈ 116 µM)
- Activity [3]: 3.99 log10CFU/ml
- Activity [4]: 100%
- Activity [5]: Dose-Dependent Effect
- MIC [6]: 0.004 µg/mL (≈ 0.00725 µM)
- MIC [7]: 0.008 µg/mL (≈ 0.0145 µM)
- Activity [8]: 57.98%
- fold change (FC) [9]: 6.12
- Activity [10]: Active
- Activity [11]: Active
- Activity [12]: Active
- Activity [13]: inactive
- Activity [14]: Active
- Cmax [15]: 9570 ng/mL
- mortality at 336 h [16]: 0%
- Activity [17]: 215.3 g
- Activity [18]: 208.6 g
- Activity [19]: 181.4 g
- Activity [20]: 303.6 g
- Activity [21]: 217.4 g
- Activity [22]: 45.63%
- Activity [23]: 40.48%
- Ratio [24]: 3.195
- Ratio [25]: 3.193
- Ratio [26]: 0.822
- Ratio [27]: 0.808
- Ratio [28]: 0.374
- Ratio [29]: 0.44
- Ratio [30]: 0.411
- Ratio [31]: 0.503
- Ratio [32]: 0.226
- Ratio [33]: 0.235
- Ratio [34]: 1.048
- Activity [35]: 14.9%

— ChEMBL document CHEMBL5625206, “Design, synthesis, and evaluation of novel pleuromutilin aryl acrylate derivatives as promising broad-spectrum antibiotics especially for combatting multi-drug resistant gram-negative bacteria” (Eur J Med Chem, 2023)
